Assay results: patent US10597380B2, “Pyridazinone-based broad spectrum anti-influenza inhibitors” (Hoffmann-La Roche Inc., priority 2017, dated 2020)

The compounds below were run on Influenza A/WSN/33-Luciferase virus (assay: microbe, parasite or virus in culture). Conditions: A549, 72 h, luciferase signal three days later, read-out: IC50 antiviral activity (Luciferase reporter assay).
Type: cell-based

Question: With O=c1c(Nc2nn(-c3ccc(OC(F)(F)F)cc3)c(=O)c3c2CCC3)cccn1CCn1ccnc1 [Example 40, 1-[[1-(2-imidazol-1-ylethyl)-2-oxo-3-pyridyl]amino]-3-[4-(trifluoromethoxy)phenyl]-6,7-dihydro-5H-cyclopenta[d]pyridazin-4-one] as the compound, how does the IC50 read?
Answer: 100 nM

Question: CCOC(=O)C1CN(CCn2cccc(Nc3nn(-c4ccc(OC(F)(F)F)cc4)c(=O)c4c3CCC4)c2=O)CCO1 (stereo not drawn) [Example 41, ethyl 4-[2-[2-oxo-3-[[4-oxo-3-[4-(trifluoromethoxy)phenyl]-6,7-dihydro-5H-cyclopenta[d]pyridazin-1-yl]amino]-1-pyridyl]ethyl]morpholine-2-carboxylate] was tested. Which IC50 did it give?
Answer: 60 nM

Question: How did the IC50 turn out when COC1CCN(CCn2cccc(Nc3nn(-c4ccc(OC(F)(F)F)cc4)c(=O)c4c3CCC4)c2=O)C1 (stereo not drawn) [Example 42, 1-[[1-[2-(3-methoxypyrrolidin-1-yl)ethyl]-2-oxo-3-pyridyl]amino]-3-[4-(trifluoromethoxy)phenyl]-6,7-dihydro-5H-cyclopenta[d]pyridazin-4-one] was run?
Answer: 40 nM

Question: Which IC50 does the source give for CC(C)(C)OC(=O)N(CCn1cccc(Nc2nn(-c3ccc(OC(F)(F)F)cc3)c(=O)c3c2CCC3)c1=O)CC(=O)O [Example 43, 2-[tert-butoxycarbonyl-[2-[2-oxo-3-[[4-oxo-3-[4-(trifluoromethoxy)phenyl]-6,7-dihydro-5H-cyclopenta[d]pyridazin-1-yl]amino]-1-pyridyl]ethyl]amino]acetic acid] here?
Answer: 84 nM

Question: O=c1c(Nc2nn(-c3ccc(OC(F)(F)F)cc3)c(=O)c3c2CCC3)cccn1CCCN1CCOCC1 [Example 44, 1-[[1-(3-morpholinopropyl)-2-oxo-3-pyridyl]amino]-3-[4-(trifluoromethoxy)phenyl]-6,7-dihydro-5H-cyclopenta[d]pyridazin-4-one] was tested. Which IC50 did it give?
Answer: 28 nM

Question: CC(C)(C)OC(=O)NCCn1cccc(Nc2nn(-c3ccc(OC(F)(F)F)cc3)c(=O)c3c2CCC3)c1=O [Example 45, tert-butyl N-[2-[2-oxo-3-[[4-oxo-3-[4-(trifluoromethoxy)phenyl]-6,7-dihydro-5H-cyclopenta[d]pyridazin-1-yl]amino]-1-pyridyl]ethyl]carbamate] was tested. Which IC50 did it give?
Answer: 286 nM

Question: How did the IC50 turn out when O=c1c(Nc2nn(-c3ccc(OC(F)(F)F)cc3)c(=O)c3c2CCC3)cccn1CCN1CC(O)C1 [Example 46, 1-[[1-[2-(3-hydroxyazetidin-1-yl)ethyl]-2-oxo-3-pyridyl]amino]-3-[4-(trifluoromethoxy)phenyl]-6,7-dihydro-5H-cyclopenta[d]pyridazin-4-one] was run?
Answer: 33 nM

Question: Which IC50 does the source give for O=c1c(Nc2nn(-c3ccc(OC(F)(F)F)cc3)c(=O)c3c2CCC3)cncn1CCO [Example 47, 1-[[1-(2-hydroxyethyl)-6-oxo-pyrimidin-5-yl]amino]-3-[4-(trifluoromethoxy)phenyl]-6,7-dihydro-5H-cyclopenta[d]pyridazin-4-one] here?
Answer: 71 nM

Question: With CN1CCN(CCCn2cccc(Nc3nn(-c4ccc(OC(F)(F)F)cc4)c(=O)c4c3CCC4)c2=O)CC1 [Example 48, 1-[[1-[3-(4-methylpiperazin-1-yl)propyl]-2-oxo-3-pyridyl]amino]-3-[4-(trifluoromethoxy)phenyl]-6,7-dihydro-5H-cyclopenta[d]pyridazin-4-one] as the compound, how does the IC50 read?
Answer: 18 nM

Question: With O=c1c(Nc2nn(-c3ccc(OC(F)(F)F)cc3)c(=O)c3c2CCC3)cccn1CCCO [Example 49, 1-[[1-(3-hydroxypropyl)-2-oxo-3-pyridyl]amino]-3-[4-(trifluoromethoxy)phenyl]-6,7-dihydro-5H-cyclopenta[d]pyridazin-4-one] as the compound, how does the IC50 read?
Answer: 16 nM

Question: For CN(C)CCn1cncc(Nc2nn(-c3ccc(OC(F)(F)F)cc3)c(=O)c3c2CCC3)c1=O [Example 50, 1-[[1-[2-(dimethylamino)ethyl]-6-oxo-pyrimidin-5-yl]amino]-3-[4-(trifluoromethoxy)phenyl]-6,7-dihydro-5H-cyclopenta[d]pyridazin-4-one], which IC50 is on record?
Answer: 28 nM

Question: With CCN(CC)CCn1cncc(Nc2nn(-c3ccc(OC(F)(F)F)cc3)c(=O)c3c2CCC3)c1=O [Example 51, 1-[[1-[2-(diethylamino)ethyl]-6-oxo-pyrimidin-5-yl]amino]-3-[4-(trifluoromethoxy)phenyl]-6,7-dihydro-5H-cyclopenta[d]pyridazin-4-one] as the compound, how does the IC50 read?
Answer: 44 nM

Question: Which IC50 does the source give for O=c1c(Nc2nn(-c3ccc(OC(F)(F)F)cc3)c(=O)c3c2CCC3)cncn1CCN1CCCC1 [Example 52, 1-[[6-oxo-1-(2-pyrrolidin-1-ylethyl)pyrimidin-5-yl]amino]-3-[4-(trifluoromethoxy)phenyl]-6,7-dihydro-5H-cyclopenta[d]pyridazin-4-one] here?
Answer: 62 nM

Question: For Cn1cccc(Nc2nn(-c3ccc(C(C)(C)C)cc3F)c(=O)c3c2CCC3)c1=O [Example 53, 3-(4-tert-butyl-2-fluoro-phenyl)-1-[(1-methyl-2-oxo-3-pyridyl)amino]-6,7-dihydro-5H-cyclopenta[d]pyridazin-4-one], which IC50 is on record?
Answer: 24 nM

Question: For Cn1cccc(Nc2nn(-c3ccc(C(F)(F)F)cc3F)c(=O)c3c2CCC3)c1=O [Example 54, 3-[2-fluoro-4-(trifluoromethyl)phenyl]-1-[(1-methyl-2-oxo-3-pyridyl)amino]-6,7-dihydro-5H-cyclopenta[d]pyridazin-4-one], which IC50 is on record?
Answer: 52 nM

Question: CCOc1ccc(-n2nc(Nc3cccn(C)c3=O)c3c(c2=O)CCC3)cn1 [Example 55, 3-(6-ethoxy-3-pyridyl)-1-[(1-methyl-2-oxo-3-pyridyl)amino]-6,7-dihydro-5H-cyclopenta[d]pyridazin-4-one] was tested. Which IC50 did it give?
Answer: 303 nM

Question: COc1ccc(-n2nc(Nc3cccn(C)c3=O)c3c(c2=O)CCC3)cn1 [Example 56, 3-(6-methoxy-3-pyridyl)-1-[(1-methyl-2-oxo-3-pyridyl)amino]-6,7-dihydro-5H-cyclopenta[d]pyridazin-4-one] was tested. Which IC50 did it give?
Answer: 278 nM

Question: How did the IC50 turn out when COc1ccc(-n2nc(Nc3cc(F)cn(C)c3=O)c3c(c2=O)CCC3)cn1 [Example 57, 1-[(5-fluoro-1-methyl-2-oxo-3-pyridyl)amino]-3-(6-methoxy-3-pyridyl)-6,7-dihydro-5H-cyclopenta[d]pyridazin-4-one] was run?
Answer: 352 nM

Question: Cn1cccc(Nc2nn(-c3ccc(C(C)(C)C)nc3)c(=O)c3c2CCC3)c1=O [Example 58, 3-(6-tert-butyl-3-pyridyl)-1-[(1-methyl-2-oxo-3-pyridyl)amino]-6,7-dihydro-5H-cyclopenta[d]pyridazin-4-one] was tested. Which IC50 did it give?
Answer: 17 nM

Question: How did the IC50 turn out when Cn1cccc(Nc2nn(-c3ccc(OC(F)F)cc3)c(=O)c3c2CCC3)c1=O [Example 59, 3-[4-(difluoromethoxy)phenyl]-1-[(1-methyl-2-oxo-3-pyridyl)amino]-6,7-dihydro-5H-cyclopenta[d]pyridazin-4-one] was run?
Answer: 137 nM

Question: With Cn1cccc(Nc2nn(-c3ccc(C(F)(F)F)cc3)c(=O)c3c2CCC3)c1=O [Example 60, 1-[(1-methyl-2-oxo-3-pyridyl)amino]-3-[4-(trifluoromethyl)phenyl]-6,7-dihydro-5H-cyclopenta[d]pyridazin-4-one] as the compound, how does the IC50 read?
Answer: 11 nM

Question: For Cn1cccc(Nc2nn(-c3ccc(OC(F)(F)F)cc3)c(=O)c3c2CC(C)(C)C3)c1=O [Example 61, 6,6-dimethyl-1-[(1-methyl-2-oxo-3-pyridyl)amino]-3-[4-(trifluoromethoxy)phenyl]-5,7-dihydrocyclopenta[d]pyridazin-4-one], which IC50 is on record?
Answer: 60 nM

Question: How did the IC50 turn out when Cn1cccc(Nc2nn(-c3ccc(OC(F)(F)F)cc3)c(=O)c3c2CCOC3)c1=O [Example 62, 1-[(1-methyl-2-oxo-3-pyridyl)amino]-3-[4-(trifluoromethoxy)phenyl]-7,8-dihydro-5H-pyrano[3,4-d]pyridazin-4-one] was run?
Answer: 186 nM

Question: Cn1cccc(Nc2nn(-c3ccc(OC(F)(F)F)cc3)c(=O)c3c2COCC3)c1=O [Example 63, 4-[(1-methyl-2-oxo-3-pyridyl)amino]-2-[4-(trifluoromethoxy)phenyl]-7,8-dihydro-5H-pyrano[3,4-d]pyridazin-1-one] was tested. Which IC50 did it give?
Answer: 33 nM

Question: Which IC50 does the source give for Cc1ccc(Nc2nn(-c3ccc(OC(F)(F)F)cc3)c(=O)c3ccccc23)c(=O)n1C [Example 64, 4-[(1,6-dimethyl-2-oxo-3-pyridyl)amino]-2-[4-(trifluoromethoxy)phenyl]phthalazin-1-one] here?
Answer: 355 nM

Question: Which IC50 does the source give for Cc1ncc(Nc2nn(-c3ccc(OC(F)(F)F)cc3)c(=O)c3ccccc23)c(=O)[nH]1 [Example 65, 4-[(2-methyl-6-oxo-1H-pyrimidin-5-yl)amino]-2-[4-(trifluoromethoxy)phenyl]phthalazin-1-one] here?
Answer: 405 nM

Question: With Cn1cncc(Nc2nn(-c3ccc(OC(F)(F)F)cc3)c(=O)c3ccccc23)c1=O [Example 66, 4-[(1-methyl-6-oxo-pyrimidin-5-yl)amino]-2-[4-(trifluoromethoxy)phenyl]phthalazin-1-one] as the compound, how does the IC50 read?
Answer: 36 nM

Question: How did the IC50 turn out when CCc1cc(Nc2nn(-c3ccc(OC(F)(F)F)cc3)c(=O)c3ccccc23)c(=O)n(C)c1 [Example 67, 4-[(5-ethyl-1-methyl-2-oxo-3-pyridyl)amino]-2-[4-(trifluoromethoxy)phenyl]phthalazin-1-one] was run?
Answer: 563 nM

Question: Cc1ccc(Nc2nn(-c3ccc(OC(F)(F)F)cc3)c(=O)c3ccccc23)c(=O)[nH]1 [Example 68, 4-[(6-methyl-2-oxo-1H-pyridin-3-yl)amino]-2-[4-(trifluoromethoxy)phenyl]phthalazin-1-one] was tested. Which IC50 did it give?
Answer: 1710 nM

Question: COC(=O)CCn1cccc(Nc2nn(-c3ccc(OC(F)(F)F)cc3)c(=O)c3ccccc23)c1=O [Example 69, methyl 3-[2-oxo-3-[[4-oxo-3-[4-(trifluoromethoxy)phenyl]phthalazin-1-yl]amino]-1-pyridyl]propanoate] was tested. Which IC50 did it give?
Answer: 228 nM

Question: CN(C)CCn1cccc(Nc2nn(-c3ccc(OC(F)(F)F)cc3)c(=O)c3ccccc23)c1=O [Example 70, 4-[[1-[2-(dimethylamino)ethyl]-2-oxo-3-pyridyl]amino]-2-[4-(trifluoromethoxy)phenyl]phthalazin-1-one] was tested. Which IC50 did it give?
Answer: 19 nM

Question: How did the IC50 turn out when COCCn1cccc(Nc2nn(-c3ccc(OC(F)(F)F)cc3)c(=O)c3ccccc23)c1=O [Example 71, 4-[[1-(2-methoxyethyl)-2-oxo-3-pyridyl]amino]-2-[4-(trifluoromethoxy)phenyl]phthalazin-1-one] was run?
Answer: 54 nM

Question: For CS(=O)(=O)CCn1cccc(Nc2nn(-c3ccc(OC(F)(F)F)cc3)c(=O)c3ccccc23)c1=O [Example 72, 4-[[1-(2-methylsulfonylethyl)-2-oxo-3-pyridyl]amino]-2-[4-(trifluoromethoxy)phenyl]phthalazin-1-one], which IC50 is on record?
Answer: 24 nM
